Data set [1] addresses T1, Human CysLT1 (LTD4) (Homo sapiens, UniProt Q9Y271).
T1 construct: Eurofins Cerep-Panlabs (France), contract assay
T1 sequence (Q9Y271 1-337): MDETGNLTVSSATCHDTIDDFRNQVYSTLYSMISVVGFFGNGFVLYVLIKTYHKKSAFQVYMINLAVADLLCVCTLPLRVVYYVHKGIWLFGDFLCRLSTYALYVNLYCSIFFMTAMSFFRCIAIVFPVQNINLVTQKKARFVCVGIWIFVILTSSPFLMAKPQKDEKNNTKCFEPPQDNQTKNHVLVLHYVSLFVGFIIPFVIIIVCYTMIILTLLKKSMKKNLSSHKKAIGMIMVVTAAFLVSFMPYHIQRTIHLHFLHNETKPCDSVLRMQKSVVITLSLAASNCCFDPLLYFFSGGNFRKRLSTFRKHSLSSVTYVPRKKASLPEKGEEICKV
The experiment in a line: Human CysLT1 (LTD4) antagonist effect cellular functional assay (Ca2+ fluorescence, Eurofins Cerep-Panlabs). It counts as cell-based. Conditions: antagonist effect, 0.1 nM LTD4; read-out: CysLT1R IC50. The procedure:
Human CysLT1 (LTD4) (h) (antagonist effect) Cellular Functional Assay. These assays were performed at Eurofins Cerep-Panlabs (France). The cells were suspended in DMEM buffer (Invitrogen) and then distributed in microplates at a density of 3.104 cells/well. […] Thereafter, the assay plates are positioned in a microplate reader (CellLux, PerkinElmer), which was used for the addition of the test compound or HBSS buffer, then 5 min later, 0.1 nM LTD4 or HBSS buffer (basal control), and measured the changes in fluorescence intensity, which varies proportionally to the free cytosolic Ca^2+-ion concentration.

Data set [2] can be described thus: In vivo stability: amount of compound 2 in plasma of mice. Conditions: 30 mg/kg. The procedure: The amount of compound 2 in plasma samples of animals treated with compound 2 was evaluated measuring the peak area of the compound at 1, 6, and 24 h after administration. 50 μL of plasma samples were mixed with 200 μL of acetonitrile, vortexed and incubated for 1 h on ice. Samples were then centrifuged for 10 min at 10,000 rpm and supernatants were evaporated to dryness. For LC/MS-MS analysis a QTRAP 6500 System (AB Sciex) equipped with Shimadzu LC-20A LC and AutoSampler was employed. […] The transition 356 →143 was employed for quantification. The following parameters were set: positive mode, DP 120 eV, EP 12 eV, CE 40 eV, CXP 23 V, CUR 30 psi, CAD Medium, IS 5500 V, TEM 350°C, GS1 and GS2 50 psi.
Given the promising results obtained during in vitro pharmacokinetics studies, the profile of disappearance of compound 2 was also evaluated in vivo. Mice were treated with compound 2 and plasma samples withdrawn 1, 6, and 24 h after administration were analyzed by LC-MSMS to evaluate the concentration of compound 2.

A short description of data set [3]: LogD octanol/PBS pH 7.4. It counts as physicochemical. The procedure:
LogD. Measurements 40 µL of selected compounds were dissolved in 1960 µL of PBS pH 7.4/Octanol. Samples were shacked for 2 h at rt, 10 µL of each phase were withdrawn, diluted in 490 µL of MeOH, and analyzed by LC-MSMS. The ratio of mass signal area obtained in octanol and PBS at pH 7.4 and in organic solvent was employed to calculate LogD.

Data set [4] relates to C57BL/6J male mice fed HFD-F. The experiment in a line: HFD-F mouse model of NAFLD/NASH (body weight, OGTT, biochemistry, histopathology, adipose tissues). The format is in vivo. Conditions: 30 mg/kg/day by gavage. An excerpt: C57BL/6J male mice were fed a high fat diet (HFD) containing 59 KJ% fat plus 1% cholesterol, w/o sugar (ssniff ® EF R/M acc. D12330 mod. 22,7 ME/kg) and fructose (HFD-F) in drinking water (42 g/L), or normal chow diet for 61 days. Food intake was estimated as the difference of weight between the offered and the remnant amount of food at 3-days intervals. The food was provided as pressed pellets and the residual spillage was not considered. After 7 days, HFD-F mice were randomized to receive HFD-F alone or in combination with compound 2 (30 mg/kg/day) by gavage until the end of the experiment. Doses of each agent were chosen according to previously published data. Mice were housed under controlled temperature (22°C) and photoperiods (12:12-h light/dark cycle), allowed unrestricted access to standard mouse chow and tap water. The experimental protocol was approved by the Animal Care and Use Committee of the University of Perugia and by the Italian Minister of Health and Istituto Superiore di Sanità (Italy) and was in agreement with the European guidelines for use of experimental animals (permission n. 583/2017-PR). The general health of the animals was monitored daily by the Veterinarian in the animal facility. At the day of sacrifice, fed mice were deeply anesthetized with a mixture of tiletamine hypochloride and zolazepam hypochloride/xylazine at a dose of 50/5 mg/kg and sacrificed before 12 a.m.
Body weight and body length (nose-to-anus or nose–anus length) were measured in anesthetized mice at the time of sacrifice and were used to calculate the body mass index (BMI) (=body weight (g)/length^2 (cm^2)) and the Lee index (=cube root of body weight (g)/nose-to-anus length (cm)).
AST, ALT, total- and HDL-cholesterol, and triglycerides plasmatic levels were quantified using an automated clinical chemistry analyzer (Cobas, Roche).
After 8 weeks of HFD-F mice were fasted overnight and orally administered glucose (1.5 g/kg body weight) for OGTT. The blood glucose concentrations were measured at 0, 15, 30, 60, 90, and 120 min after feeding or injection using a portable glucose meter (Accu-Check Go, Roche).
Temperature of brown adipose tissue (BAT) was recorded through the study using a noninvasive technology. Briefly, mice were maintained at 25°C and the thermal images were taken by a FLIR E6 thermal imaging camera (FLIR System, Wilsonville, Oregon) and the surface temperature quantified by the FLIR Tools.
For histological examination, portions of the right and left liver lobes were fixed in 10% formalin, embedded in paraffin, sectioned and stained with Sirius red and/or Hematoxylin/Eosin (H&E), for morphometric analysis ([Fiorucci et al., 2004]). NASH severity (steatosis, hepatocytes ballooning, lobular inflammation, and portal inflammation) was scored in H&E-stained cross sections using an adapted grading system of human NASH as described previously ([Carino et al., 2017b]).

Molecules are shown by their SMILES. Where “and” joins values, the source holds several entries; their conditions need not be identical. Equal values may be shown once.

Here are results for 1 compound from publication PMC9085577, “Discovery of a Potent and Orally Active Dual GPBAR1/CysLT1R Modulator for the Treatment of Metabolic Fatty Liver Disease” (Frontiers in Pharmacology, 2022).

For orientation: IC50 means the concentration at which inhibition is half-maximal. Usually logD stands for the decadic logarithm of the distribution of all forms, ionised or not, between an organic phase and buffer at a given pH. Higher therefore signals a more lipophilic compound.

Take `O=C(O)c1cccc(-c2ccc(OCc3ccc4ccccc4n3)cc2)c1` [Compound 2, 4'-(quinolin-2-ylmethoxy)-[1,1′-biphenyl]-3-carboxylic acid]: the IC50 in data set [1] is 5.6 µM and 5.67 µM. Further, the “compound remaining in plasma” value in data set [2] (6 h after administration) is “considerable percentage of compound 2 is still present”. Besides, the “compound remaining in plasma” value in data set [2] (24 h after administration) is “approximately 20%”. The LogD entry in data set [3] is “proper”. Moreover, the logD at 2 h in data set [3] (octanol/PBS) worked out at 2. Moreover, in data set [4], the ALT plasma levels entry is on record as “reduced”, the AST plasma levels entry was “reduced”, the “body mass index (BMI)” value is on record as “reduced” and the eWAT weight result is “reduced”. In data set [4], the “insulin sensitivity (OGTT)” value is on record as “increased”; the “liver fibrosis and collagen deposition (Sirius red)” value is listed as “robustly attenuated”; the “liver steatosis and hepatocytes ballooning (H&E)” value was “highly effective in reversing these features”; the liver weight result was “reversed the effect exerted by the diet”. Moreover, in data set [4], the proatherogenic lipid profile result is “partially reversed”, the “ratio of BAT weight/body weight” value was “reduced”, the “ratio of eWAT weight/body weight” value is recorded as “reduced these changes” and the “volume of BAT” value is on record as “reduced”. Also, the body weight gain result in data set [4] (54 days) is “reduced”.
